For one test, the target named is T1, P70S6K (T412E mutant) (Homo sapiens, UniProt P23443, T412E).
T1 construct: purchased Millipore
Description: P70S6K enzyme assay. The format is biochemical. Particulars: 24 μM ATP, 90 min at 25° C., mobility shift (Caliper). On the procedure:
P70S6K inhibitor compounds were diluted and plated in 96 well plates. A reaction mixture including the following components was then added to the compound plate to initiate the enzyme reaction; P70S6K (3 nM, T412E mutant, Millipore) was mixed with 24 μM ATP in an assay buffer containing 100 mM Hepes (pH 7.5), 5 mM MgCl2, 1 mM DTT, 0.015% Brij and 1 μM of the substrate peptide FITC-AHA-AKRRRLSSLRA-OH (derived from the S6 ribosomal protein sequence, FITC=fluorescein isothiocyanate, AHA=6-aminohexanoic acid). The reaction was incubated for 90 min at 25° C., before the addition of 10 mM EDTA to stop the reaction. The proportion of substrate and product (phosphorylated) peptide was analysed on a Caliper Life Sciences Lab Chip 3000, using a pressure of −1.4 psi, and upstream and downstream voltages of −3000 and −700 respectively. Product peaks were resolved before substrate peaks on the resulting chromatograms.

The target of another test is T2, His-AKT (Full Length) (Homo sapiens, UniProt P31749).
T2 construct: His-AKT (Full Length); His; purchased Invitrogen P2999
T2 sequence (P31749 whole entry): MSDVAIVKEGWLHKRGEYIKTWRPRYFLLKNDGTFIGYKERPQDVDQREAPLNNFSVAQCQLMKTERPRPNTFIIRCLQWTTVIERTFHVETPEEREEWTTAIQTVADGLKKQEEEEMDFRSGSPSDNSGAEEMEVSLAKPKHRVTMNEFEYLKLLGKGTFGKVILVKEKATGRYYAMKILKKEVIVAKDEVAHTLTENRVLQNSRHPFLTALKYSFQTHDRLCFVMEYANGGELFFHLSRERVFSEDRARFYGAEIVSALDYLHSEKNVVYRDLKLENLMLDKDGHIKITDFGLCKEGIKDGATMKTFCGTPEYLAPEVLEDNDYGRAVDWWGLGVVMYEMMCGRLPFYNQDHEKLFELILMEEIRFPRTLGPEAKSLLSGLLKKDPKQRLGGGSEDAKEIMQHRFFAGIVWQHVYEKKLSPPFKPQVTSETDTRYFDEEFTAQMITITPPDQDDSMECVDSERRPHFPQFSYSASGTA
In words: AKT enzyme assay. In kind it is biochemical. Particulars: 160 uM ATP, 90 min at 25 C, off-chip mobility shift (Caliper). On the procedure:
A TTP Mosquito liquid handling instrument was used to place 125 nl of the appropriate concentration of inhibitor in 100% DMSO (for a dose response curve calculation) into each well of a 384-well plate. To this reaction components were added to a final volume of 12.5 μl: • 0.1 ng/μ1 His-AKT (Full Length), (Invitrogen, Part # P2999, Lot #641228C). • 160 uM ATP (Fluka, 02055) • 1 mM DTT (Sigma, D0632) • 1 mM MgCl2 (Sigma, M1028) • 1 μM substrate peptide (sequence FITC-AHA-GRPRTSSFAEG-NH2), synthesized by Tufts Peptide Synthesis service. • 100 mM HEPES pH 7.5 (Calbiochem, 391338) • 0.015% Brij-35 (Sigma, B4184)
The reaction was incubated for 90 min at 25 C, and then stopped by the addition of 70 μl of Stop buffer (100 mM HEPES pH 7.5, 0.015% Brij-35, 10 mM EDTA (Sigma, E7889)).
The plate was read on a Caliper LC 3000 in an Off-Chip mobility shift assay format, using the following parameters for a 12-sipper chip: screening pressure—2.3 psi, upstream voltage—500, and downstream voltage—3000. These conditions cause unphosphorylated substrate and phosphorylated product peptide to resolve as separate peaks allowing direct measurement of percentage of conversion of substrate to product. The percent conversion was plotted against concentration of inhibitor to produce a sigmoidal dose response curve, from which an IC50 was calculated.

T1 sequence (P23443 whole entry T412E): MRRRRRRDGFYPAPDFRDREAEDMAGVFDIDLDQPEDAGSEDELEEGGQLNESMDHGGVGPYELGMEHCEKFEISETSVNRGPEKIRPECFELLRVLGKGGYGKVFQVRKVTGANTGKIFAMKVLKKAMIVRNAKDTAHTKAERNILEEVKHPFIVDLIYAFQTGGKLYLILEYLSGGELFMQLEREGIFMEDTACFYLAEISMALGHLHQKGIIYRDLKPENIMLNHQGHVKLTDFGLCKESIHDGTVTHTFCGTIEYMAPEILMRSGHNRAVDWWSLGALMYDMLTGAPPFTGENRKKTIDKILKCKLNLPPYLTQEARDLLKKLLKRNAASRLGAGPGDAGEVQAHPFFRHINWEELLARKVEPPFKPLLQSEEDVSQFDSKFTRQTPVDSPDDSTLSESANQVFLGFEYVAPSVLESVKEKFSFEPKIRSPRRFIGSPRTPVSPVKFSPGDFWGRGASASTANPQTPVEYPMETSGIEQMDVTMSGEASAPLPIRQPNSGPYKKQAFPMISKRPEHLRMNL

As usually defined, the IC50 is the concentration that inhibits the measured activity by half. Regarding `Cc1cc(-c2cn(CCN3CCC3)c(C3CCN(c4ncnc(N)c4C(C)C)CC3)n2)ccc1F` [Compound 4, 6-{4-[1-(2-Azetidin-1-yl-ethyl)-4-(4-fluoro-3-methyl-phenyl)-1H-imidazol-2-yl]-piperidin-1-yl}-5-isopropyl-pyrimidin-4-ylamine], the IC50 on P70S6K (T412E mutant) and on His-AKT (Full Length) was 3 to 15 nM throughout.

As to `CCOc1c(N)ncnc1N1CCC(c2nc(-c3ccnc(C(F)(F)F)c3)cn2CCN(C)C)CC1` [Compound 26], the IC50 at P70S6K (T412E mutant) and on His-AKT (Full Length) was 3 to 15 nM in each case.

Consider `Cc1cc(-c2cn(CCN3CCC3)c(C3CCN(c4ncnc(N)c4C4CC4)CC3)n2)ccc1F` [Compound 16, 6-{4-[1-(2-Azetidin-1-yl-ethyl)-4-(4-fluoro-3-methyl-phenyl)-1H-imidazol-2-yl]-piperidin-1-yl}-5-cyclopropyl-pyrimidin-4-ylamine], for which the IC50 at P70S6K (T412E mutant) and on His-AKT (Full Length) was < 3 nM in each case.

Take `Cc1cc(-c2cn(CCN3CCC3)c(C3CCN(c4ncnc(N)c4-c4ccncc4)CC3)n2)ccc1F` [Compound 8, 6-{4-[1-(2-Azetidin-1-yl-ethyl)-4-(4-fluoro-3-methyl-phenyl)-1H-imidazol-2-yl]-piperidin-1-yl}-5-pyridin-4-yl-pyrimidin-4-ylamine]: the IC50 at P70S6K (T412E mutant) and at His-AKT (Full Length) was 3 to 15 nM each time.

With `CCc1c(N)ncnc1N1CCC(c2nc(-c3ccnc(C(F)(F)F)c3)cn2CCN(C)C)CC1` [Compound 27], the IC50 at P70S6K (T412E mutant) was 3 to 15 nM; on His-AKT (Full Length) it was > 15 nM.

For the compound `CN(C)CCn1cc(-c2ccnc(C(F)(F)F)c2)nc1C1CCN(c2ncnc(N)c2Cl)CC1` [Compound 24], the IC50 is < 3 nM at P70S6K (T412E mutant) and 3 to 15 nM on His-AKT (Full Length).

Take `Cc1cc(-c2cn(CC3CN(C)C3)c(C3CCN(c4ncnc(N)c4Cl)CC3)n2)ccc1F` [Compound 6, 5-Chloro-6-{4-[4-(4-fluoro-3-methyl-phenyl)-1-(1-methyl-azetidin-3-ylmethyl)-1H-imidazol-2-yl]-piperidin-1-yl}-pyrimidin-4-ylamine]: the IC50 on P70S6K (T412E mutant) and on His-AKT (Full Length) was 3 to 15 nM in each case.

As to `CC(C)c1cc(-c2cn(CCN3CCC3)c(C3CCN(c4ncnc(N)c4OCC(F)(F)F)CC3)n2)ccn1` [Compound 14, 6-{4-[1-(2-Azetidin-1-yl-ethyl)-4-(2-isopropyl-pyridin-4-yl)-1H-imidazol-2-yl}-piperidin-1-yl]-5-(2,2,2-trifluoro-ethoxy)-Pyrimidin-4-ylamine], the IC50 at P70S6K (T412E mutant) and on His-AKT (Full Length) was 3 to 15 nM each time.

`CN(C)CCn1cc(-c2ccnc(C(F)(F)F)c2)nc1C1CCN(c2ncnc(N)c2C#N)CC1` [Compound 29]: the figures for the IC50 on P70S6K (T412E mutant) and on His-AKT (Full Length) were < 3 nM and 3 to 15 nM, respectively.

As for `CN(C)CCn1cc(-c2ccc(F)c(C(F)(F)F)c2)nc1C1CCN(c2ncnc(N)c2Cl)CC1` [Compound 23], the figures for the IC50 on P70S6K (T412E mutant) and on His-AKT (Full Length) were < 3 nM and 3 to 15 nM, respectively.

Turning to `CC(C)c1cc(-c2cn(CCN3CCC3)c(C3CCN(c4ncnc(N)c4-c4ccncc4)CC3)n2)ccn1` [Compound 13, 6-{4-[1-(2-Azetidin-1-yl-ethyl)-4-(2-isopropyl-pyridin-4-yl)-1H-imidazol-2-yl}-piperidin-1-yl]-5-Pyridin-4-yl-pyrimidin-4-ylamine], the IC50 on P70S6K (T412E mutant) was 3 to 15 nM; at His-AKT (Full Length), > 15 nM.

`CC(C)c1cc(-c2cn(CCN3CCC3)c(C3CCN(c4ncnc(N)c4C4CCC4)CC3)n2)ccn1` [Compound 11, 6-{4-[1-(2-Azetidin-1-yl-ethyl)-4-(2-isopropyl-pyridin-4-yl)-1H-imidazol-2-yl]-piperidin-1-yl}-5-cyclobutyl-pyrimidin-4-ylamine]: the IC50 on P70S6K (T412E mutant) is 3 to 15 nM; on His-AKT (Full Length) it was < 3 nM.

Consider `Cc1cc(-c2cn(CCN(C)C)c(C3CCN(c4ncnc(N)c4Br)CC3)n2)ccc1F` [Compound 21], for which the IC50 on P70S6K (T412E mutant) and at His-AKT (Full Length) was < 3 nM in each case.

On to `Cc1cc(-c2cn(CCNCCCCl)c(C3CCN(c4ncnc(N)c4C(C)C)CC3)n2)ccc1F` [Compound 32, 6-{4-[1-[2-(3-Chloro-propylamino)-ethyl]-4-(4-fluoro-3-methyl-phenyl)-1H-imidazol-2-yl]-piperidin-1-yl}-5-isopropyl-pyrimidin-4-ylamine], for which the IC50 was < 3 nM at P70S6K (T412E mutant) and 3 to 15 nM on His-AKT (Full Length).

With `CC(C)Oc1c(N)ncnc1N1CCC(c2nc(-c3ccnc(C(C)C)c3)cn2CCN2CCC2)CC1` [Compound 12, 6-{4-[1-(2-Azetidin-1-yl-ethyl)-4-(2-isopropyl-pyridin-4-yl)-1H-imidazol-2-yl]-piperidin-1-yl}-5-isopropoxy-pyrimidin-4-ylamine], the IC50 on P70S6K (T412E mutant) and on His-AKT (Full Length) was 3 to 15 nM throughout.

For the compound `Cc1cc(-c2cn(CCN3CCC3)c(C3CCN(c4ncnc(N)c4-c4cccnc4)CC3)n2)ccc1F` [Compound 9, 6-{4-[1-(2-Azetidin-1-yl-ethyl)-4-(4-fluoro-3-methyl-phenyl)-1H-imidazol-2-yl]-piperidin-1-yl}-5-pyridin-3-yl-pyrimidin-4-ylamine], the IC50 at P70S6K (T412E mutant) and at His-AKT (Full Length) was 3 to 15 nM throughout.

`CCOc1c(N)ncnc1N1CCC(c2nc(-c3ccnc(C(C)C)c3)cn2CCN2CCC2)CC1` [Compound 10, 6-{4-[1-(2-Azetidin-1-yl-ethyl)-4-(2-isopropyl-pyridin-4-yl)-1H-imidazol-2-yl]-piperidin-1-yl}-5-ethoxy-pyrimidin-4-ylamine]: the IC50 at P70S6K (T412E mutant) and at His-AKT (Full Length) was 3 to 15 nM each time.

For `CCOc1c(N)ncnc1N1CCC(c2nc(-c3ccc(F)c(Cl)c3)cn2CCN(C)C)CC1` [Compound 20], the figures for the IC50 on P70S6K (T412E mutant) and on His-AKT (Full Length) were < 3 nM and 3 to 15 nM, respectively.

In the case of `CCNCCn1cc(-c2ccc(F)c(C(F)(F)F)c2)nc1C1CCN(c2ncnc(N)c2C(C)C)CC1` [Compound 31, 6-{4-[1-(2-Ethylamino-ethyl)-4-(4-fluoro-3-trifluoromethyl-phenyl)-1H-imidazol-2-yl]-piperidin-1-yl}-5-isopropyl-pyrimidin-4-ylamine], the IC50 on P70S6K (T412E mutant) and on His-AKT (Full Length) was 3 to 15 nM throughout.

As to `Cc1cc(-c2cn(CCN3CCC3)c(C3CCN(c4ncnc(N)c4Cl)CC3)n2)ccc1F` [Compound 2, 6-{4-[1-(2-Azetidin-1-yl-ethyl)-4-(4-fluoro-3-methyl-phenyl)-1H-imidazol-2-yl]-piperidin-1-yl}-5-chloro-pyrimidin-4-ylamine], the IC50 at P70S6K (T412E mutant) and on His-AKT (Full Length) was < 3 nM in each case.

In the case of `CC(C)c1cc(-c2cn(CCN3CCC3)c(C3CCN(c4ncnc(N)c4-c4ccccc4)CC3)n2)ccn1` [Compound 18, 6-{4-[1-(2-Azetidin-1-yl-ethyl)-4-(2-isopropyl-pyridin-4-yl)-1H-imidazol-2-yl]-piperidin-1-yl}-5-phenyl-pyrimidin-4-ylamine], the IC50 on P70S6K (T412E mutant) was < 3 nM; on His-AKT (Full Length), > 15 nM.

In the case of `CCc1c(N)ncnc1N1CCC(c2nc(-c3ccc(F)c(C)c3)cn2CCN2CCC2)CC1` [Compound 1, 6-{4-[1-(2-Azetidin-1-yl-ethyl)-4-(4-fluoro-3-methyl-phenyl)-1H-imidazol-2-yl]-piperidin-1-yl}-5-ethyl-pyrimidin-4-ylamine], the IC50 on P70S6K (T412E mutant) was < 3 nM; on His-AKT (Full Length), 3 to 15 nM.

Regarding `CC(C)c1cc(-c2cn(CCN3CCC3)c(C3CCN(c4ncnc(N)c4-c4cccnc4)CC3)n2)ccn1` [Compound 19, 6-{4-[1-(2-Azetidin-1-yl-ethyl)-4-(2-isopropyl-pyridin-4-yl)-1H-imidazol-2-yl]-piperidin-1-yl}-5-Pyridin-3-yl-pyrimidin-4-ylamine], the IC50 was 3 to 15 nM at P70S6K (T412E mutant) and > 15 nM at His-AKT (Full Length).

`CC(C)c1c(N)ncnc1N1CCC(c2nc(-c3ccnc(C(F)(F)F)c3)cn2CCN2CCC2)CC1` [Compound 5, 6-{4-[1-(2-Azetidin-1-yl-ethyl)-4-(2-trifluoromethyl-pyridin-4-yl)-1H-imidazol-2-yl]-piperidin-1-yl}-5-isopropyl-pyrimidin-4-ylamine]: the IC50 on P70S6K (T412E mutant) is < 3 nM; at His-AKT (Full Length), 3 to 15 nM.

With `CC(C)c1cc(-c2cn(CCN3CCC3)c(C3CCN(c4ncnc(N)c4C=O)CC3)n2)ccn1` [Compound 15, 4-Amino-6-{4-[1-(2-azetidin-1-yl-ethyl)-4-(2-isopropyl-pyridin-4-yl)-1H-imidazol-2-yl]-piperidin-1-yl}-pyrimidine-5-carbaldehyde], the IC50 on P70S6K (T412E mutant) was < 3 nM; at His-AKT (Full Length), 3 to 15 nM.

The values are drawn from patent US9434714B2, “Pyrimidine imidazole amines as modulators of kinase activity” (Merck Patent GmbH, priority 2014, dated 2016).
